In PubChem BioAssay (NCI):
Values joined by “and” are separate entries in the source; they are usually repeats but may differ in a detail not shown here. Equal entries are not always repeated.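 Following 48 hours of exposure in 96-well plates, responses at five concentrations were used to interpolate endpoints linearly. At the GI50, growth is halved. TGI marks complete inhibition of growth.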

Experiments:
Experiment in all cases: DTP human tumour cell line panel, 48 h
COLO 205 colon = system: COLO 205 colon
786-0 renal = system: 786-0 renal
U251 CNS = system: U251 CNS
HCT-116 colon = system: HCT-116 colon
TK-10 renal = system: TK-10 renal
NCI-H522 lung = system: NCI-H522 lung
ACHN renal = system: ACHN renal
SK-OV-3 ovarian = system: SK-OV-3 ovarian
MALME-3M melanoma = system: MALME-3M melanoma
CAKI-1 renal = system: CAKI-1 renal

Row | SMILES | GI50 (COLO 205 colon) | TGI (COLO 205 colon) | GI50 (786-0 renal) | TGI (786-0 renal) | GI50 (U251 CNS) | TGI (U251 CNS) | GI50 (HCT-116 colon) | TGI (HCT-116 colon) | GI50 (TK-10 renal) | TGI (TK-10 renal) | GI50 (NCI-H522 lung) | TGI (NCI-H522 lung) | GI50 (ACHN renal) | TGI (ACHN renal) | GI50 (SK-OV-3 ovarian) | TGI (SK-OV-3 ovarian) | GI50 (MALME-3M melanoma) | TGI (MALME-3M melanoma) | TGI (CAKI-1 renal) | GI50 (CAKI-1 renal)
1 | CC(C)Oc1cc(OCC(=O)O)cc(C(=O)N(CCC(N)=O)C(=O)Nc2ccc(C(=O)O)cc2OC(C)C)c1 | > 100 µM | > 100 µM | > 100 µM | > 100 µM | > 100 µM | > 100 µM | > 100 µM | > 100 µM | > 100 µM | > 100 µM | > 100 µM | > 100 µM | > 100 µM | > 100 µM | > 100 µM | > 100 µM | > 100 µM | > 100 µM |  | 
2 | CC(=O)OC1COC(N2C(=O)C(=O)c3c(C)cc(Cl)nc32)C(OC(C)=O)C1OC(C)=O (stereo not given) |  | > 100 µM |  | > 100 µM |  | > 100 µM |  | > 100 µM |  | > 100 µM |  |  |  | > 100 µM |  |  |  | > 100 µM | > 100 µM | 
3 | CCCCN(CCCC)C(=Nc1ccccc1)N(CCCC)CCCC |  | 14 µM |  | 15.2 µM |  | 17.4 µM |  | 13.8 µM |  | 34.4 µM |  | 7.41 µM |  | 82 µM |  | 22.6 µM |  | 22.5 µM |  | 
4 | COC(=O)C1Cc2c([nH]c3ccccc23)[C@H](CC(C)C)N1 (stereo not given in full) |  | > 100 µM |  | > 100 µM |  | > 100 µM |  | > 100 µM |  | > 100 µM |  | > 100 µM |  | > 100 µM |  | > 100 µM |  | > 100 µM |  | 
5 | COC(=O)C(=O)C(C#N)c1cccc2ccccc12 (stereo not given) |  | > 100 µM |  | > 100 µM |  | > 100 µM |  | > 100 µM |  |  |  | > 100 µM |  | > 100 µM |  | > 100 µM |  | > 100 µM | > 100 µM | 
6 | N#Cc1c(N)nn(C(=O)c2ccc(NC(=O)c3ccccn3)cc2)c1-c1ccc(Cl)cc1 |  |  | 2.97 µM | 8.54 µM | 2.33 µM | 5.75 µM | 3.32 µM | > 100 µM | 3.65 µM | 19.4 µM | 4.52 µM | > 100 µM | 3.48 µM | 15.5 µM | 5.23 µM | 34.9 µM | 2.35 µM | 6.45 µM | 6.3 µM | 2.06 µM
7 | c1ccc([CH2][Sn]([CH2]c2ccccc2)([S]c2cccc3cccnc23)[S]c2cccc3cccnc23)cc1 | 0.0801 µM | 0.366 µM | 0.314 µM | 1.05 µM | 0.341 µM | 1.14 µM | 0.165 µM | 0.351 µM | 0.326 µM | 1.06 µM |  |  | 0.302 µM | 0.985 µM | 1.76 µM | 3.15 µM |  |  | 1.02 µM | 0.42 µM
8 | Cc1cc(O)c2c(c1)C[C@@H](O)C1=C2C(=O)c2c(O)ccc(OC3CC(O)C(OC4CC(OC5CCC(OC6CC(O)C(OC7CC(OC8CCC(O)C(C)O8)C(O)C(C)O7)C(C)O6)C(C)O5)C(O)C(C)O4)C(C)O3)c2C1=O (stereo not given in full) | 0.539 µM |  | 0.49 µM and 0.28 µM |  | 0.469 µM and 0.306 µM |  | 0.38 µM and 0.281 µM |  | 2.13 µM and 2.93 µM |  | 0.0888 µM and 0.176 µM | 0.0534 µM and 0.217 µM and 0.415 µM | 1.52 µM and 0.726 µM |  |  |  | 1 µM and 0.197 µM |  | 0.274 µM and 1.18 µM and 1.45 µM | 0.398 µM and 0.439 µM
9 | COc1ccc(CCNc2nc3ccccc3c3[nH]c4ccccc4c23)cc1OC | 1.57 µM | 3.46 µM | 1.7 µM | 3.28 µM | 2.97 µM | 10.3 µM | 1.71 µM | 3.52 µM | 4.47 µM | 17 µM |  |  | 3.91 µM | 17.1 µM | 19.9 µM | 34.6 µM | 1.5 µM | 3.15 µM | 24.8 µM | 11.4 µM
10 | CC(=O)NNc1nc(C)c(C(/C=C/c2ccc(/C=C/C(=N\NC(=O)c3ccncc3)c3sc(NNC(C)=O)nc3C)cc2)=N/NC(=O)c2ccncc2)s1 |  | > 100 µM |  | > 100 µM |  | > 100 µM |  | > 100 µM |  | > 100 µM |  |  |  | > 100 µM |  | > 100 µM |  | > 100 µM | > 100 µM | 
11 | Cc1ccc(S(=O)(=O)NCCCN(CCCNS(=O)(=O)c2ccc(C)cc2)S(=O)(=O)c2ccc(C)cc2)cc1 |  | > 100 µM |  | > 100 µM |  | > 100 µM |  | > 100 µM |  | > 100 µM |  | > 100 µM |  | > 100 µM |  | > 100 µM |  | > 100 µM |  | 
12 | CCOC(=O)c1cnc2ccc(Cl)cc2c1NCCCN(C)C | 10.5 µM | 24.6 µM | 43 µM | > 100 µM |  |  | 10.2 µM | > 100 µM | 27.5 µM | > 100 µM | 16.2 µM | 39.4 µM | 9.85 µM | > 100 µM | 34.9 µM | > 100 µM | 19.1 µM | 38.7 µM | 96.5 µM | 23.8 µM
13 | COc1ccc([C@H]2c3cc(OC)c(OC)cc3C=C(C=O)C2CO)cc1OC (stereo not given in full) | 3.91 µM | 17.9 µM | 7.15 µM | > 100 µM | 4.42 µM | > 100 µM | 5.32 µM | > 100 µM |  |  |  |  | 7.53 µM | > 100 µM | 4.23 µM | > 100 µM | 1.84 µM | 7.43 µM | > 100 µM | 3.02 µM
14 | COC(=O)C1=Cc2cc3c(cc2[C@H](c2ccc4c(c2)OCO4)C1C(=O)OC)OCO3 (stereo not given in full) |  | > 100 µM |  | > 100 µM |  | > 100 µM |  | > 100 µM |  | > 100 µM |  |  |  | > 100 µM |  | > 100 µM |  | > 100 µM | > 100 µM | 
15 | CC(=O)O[C@@H]1C=CC(=O)C2(CC(=O)O[C@@H]2/C=C(\C)CCC=C(C)C)C1 (stereo not given in full) | 2.24 µM | 10.3 µM | 0.931 µM | 2.26 µM | 0.82 µM | 2.07 µM | 0.399 µM | 1.71 µM | 1.67 µM | 3.71 µM | 0.988 µM |  | 1.16 µM | 2.43 µM | 2 µM | 4.49 µM |  |  | 2.3 µM | 0.744 µM
16 | O=C(Nc1ccc(Cl)c(Cl)c1)Nc1ccc(Cl)c([N+](=O)[O-])c1 | 1.12 µM | 4.9 µM | 1.49 µM | 5.21 µM | 1.13 µM | 4.3 µM | 0.813 µM | 3.18 µM | 1.42 µM | 6.9 µM | 0.996 µM | 4.9 µM | 0.8 µM | 3.06 µM | 2.01 µM | 5.89 µM | 0.915 µM | 4.96 µM |  | 
17 | C=CCCc1cc(OC)ccc1CN(C)C(C)(C)CO |  | > 100 µM |  | > 100 µM |  | > 100 µM |  | > 100 µM |  | > 100 µM |  |  |  | > 100 µM |  |  |  | > 100 µM | > 100 µM | 
18 | C=C1C(=O)OC2C1C(OC(=O)/C(=C/C)COC(C)=O)CC1(CO1)C1C(OC(=O)/C(=C/C)CO)C=C(C)C21 (stereo not given) |  | 2.3 µM |  | 3.09 µM |  | 35.1 µM |  | 2.98 µM |  | 6.05 µM |  |  |  | 4.4 µM |  | 31.3 µM |  | 3.32 µM | 2.13 µM | 
19 | CCOC(=O)C(C(=O)c1ccccc1-c1ccccc1C(=O)O)=P(c1ccccc1)(c1ccccc1)c1ccccc1 |  | 40.6 µM |  | > 100 µM |  | 36.8 µM |  | 42 µM |  | > 100 µM |  |  |  | > 100 µM |  |  |  | 66.9 µM |  | 
20 | [N-]=[N+]=Nc1ccc(S(=O)(=O)Oc2cc(OS(=O)(=O)c3ccc(N=[N+]=[N-])cc3)cc(OS(=O)(=O)c3ccc(N=[N+]=[N-])cc3)c2)cc1 |  | > 10 µM |  | > 100 µM |  | > 100 µM |  | > 100 µM |  | > 100 µM |  | > 100 µM |  | > 10 µM |  |  |  | > 100 µM | > 10 µM | 
21 | COc1ccc(NC(=O)c2ccc(NC3=C(Cl)C(=O)N(Cc4ccccc4)C3=O)cc2)cc1 | 10.9 µM | > 100 µM | 2.89 µM | 7.97 µM | 13.3 µM | 30.5 µM | 2.36 µM | 4.89 µM | 22.1 µM | 38 µM | 3.3 µM | 13.8 µM | 3.64 µM | 12.7 µM | 18.4 µM | 36.2 µM |  |  | 3.5 µM | 1.89 µM
22 | Cc1c(C(=O)/C=C/c2ccco2)[n+](=O)c2ccccc2n1[O-] |  | > 100 µM |  | > 100 µM |  |  |  | > 100 µM |  | > 100 µM |  | > 100 µM |  | > 100 µM |  | > 100 µM |  | > 100 µM | > 100 µM | 
23 | O=C1CCC/C=C\C[C@H]2C=C(Cl)C(=O)/C2=C/C[C@H](CCCCC(F)(F)F)OC(=O)CCC/C=C\C[C@H]2C=C(Cl)C(=O)/C2=C/C[C@H](CCCCC(F)(F)F)O1 | 0.246 µM | 0.859 µM | 0.18 µM | 0.475 µM | 0.226 µM | 0.772 µM | 0.157 µM | 0.43 µM | 0.346 µM | 1.89 µM | 0.166 µM | 0.384 µM | 0.262 µM | 1.02 µM | 1.72 µM | 5.17 µM | 0.21 µM | 0.694 µM |  | 
24 | O=C(CC1Sc2ccccc2NC1=O)Nc1cccc(Cl)c1 (stereo not given) |  |  |  | > 100 µM |  | 82.8 µM |  | > 100 µM |  | > 100 µM |  |  |  | > 100 µM |  |  |  | > 100 µM | > 100 µM | 
25 | COc1ccc(C(=O)O/N=C2\CCCC\C2=C/c2ccccc2)cc1 |  | > 100 µM |  | > 100 µM |  | > 100 µM |  | > 100 µM |  | > 100 µM |  |  |  | > 100 µM |  | > 100 µM |  |  | > 100 µM | 
